From patent US20140221427A1, “ISOTOPOLOGUES OF POMALIDOMIDE” (CELGENE CORPORATION, priority 2011, published 2014)
Where two headings read alike, the source gives them in different places.

Experiments:
TNFα = assay: Inhibition of TNFα in LPS-stimulated hPBMC (ELISA); assay type: cell-based; conditions: LPS-stimulated human PBMC, TNFα by ELISA; read-out: IC50s for TNFα
Procedure: Human peripheral blood mononuclear cells (hPBMC) from normal donors are obtained by Ficoll Hypaque (Pharmacia, Piscataway, N.J., USA) density centrifugation. Cells are cultured in RPMI 1640 (Life Technologies, Grand Island, N.Y., USA) supplemented with 10% AB+human serum (Gemini Bio-products, Woodland, Calif., USA), 2 mM L-glutamine, 100 U/ml penicillin, and 100 μg/ml streptomycin (Life Technologies).
PBMC (2×10^5 cells) are plated in 96-well flat-bottom Costar tissue culture plates (Corning, N.Y., USA) in triplicate. Cells are stimulated with LPS (from Salmonella abortus equi, Sigma cat. no. L-1887, St. Louis, Mo., USA) at 1 ng/ml final in the absence or presence of compounds. Compounds provided herein are dissolved in DMSO (Sigma) and further dilutions are done in culture medium immediately before use. The final DMSO concentration in all assays can be about 0.25%. Compounds are added to cells 1 hour before LPS stimulation. Cells are then incubated for 18-20 hours at 37° C. in 5% CO2, and supernatants are then collected, diluted with culture medium and assayed for TNFα levels by ELISA (Endogen, Boston, Mass., USA). IC50s are calculated using non-linear regression, sigmoidal dose-response, constraining the top to 100% and bottom to 0%, allowing variable slope (GraphPad Prism v3.02).
Potencies of racemic, (R)-, and (S)-pomalidomide in inhibiting TNFα were measured using procedures substantially similar to those described in Section 5.4 above.

IL-2 = assay: Production of IL-2 in anti-CD3-stimulated purified T cells (ELISA); assay type: cell-based, human; conditions: T cells from PBMC on anti-CD3 (OKT3) coated plates, IL-2 by ELISA, read-out: EC50s for IL-2
Procedure: PBMC are depleted of adherent monocytes by placing 1×10^8 PBMC in 10 ml complete medium (RPMI 1640 supplemented with 10% heat-inactivated fetal bovine serum, 2 mM L-glutamine, 100 U/ml penicillin, and 100 μg/ml streptomycin) per 10 cm tissue culture dish, in 37° C., 5% CO2 incubator for 30-60 minutes. The dish is rinsed with medium to remove all non-adherent PBMC. T cells are purified by negative selection using the following antibody (Pharmingen) and Dynabead (Dynal) mixture for every 1×10^8 non-adherent PBMC: 0.3 ml Sheep anti-mouse IgG beads, 15 μl anti-CD16, 15 μl anti-CD33, 15 μl anti-CD56, 0.23 ml anti-CD19 beads, 0.23 ml anti-HLA class II beads, and 56 μl anti-CD14 beads. The cells and bead/antibody mixture is rotated end-over-end for 30-60 minutes at 4° C. Purified T cells are removed from beads using a Dynal magnet. Typical yield is about 50% T cells, 87-95% CD3′ by flow cytometry.
Tissue culture 96-well flat-bottom plates are coated with anti-CD3 antibody OKT3 at 5 μg/ml in PBS, 100 μl per well, incubated at 37° C. for 3-6 hours, then washed four times with complete medium 100 μl/well just before T cells are added. Compounds are diluted to 20 times of final in a round bottom tissue culture 96-well plate. Final concentrations are about 10 μM to about 0.00064 μM. A 10 mM stock of compounds provided herein is diluted 1:50 in complete for the first 20× dilution of 200 μM in 2% DMSO and serially diluted 1:5 into 2% DMSO. Compound is added at 10 μl per 200 μl culture, to give a final DMSO concentration of 0.1%. Cultures are incubated at 37° C., 5% CO2 for 2-3 days, and supernatants analyzed for IL-2 by ELISA (R&D Systems). […]
In addition, potencies of racemic, (R)-, and (S)-pomalidomide in promoting the production of IL-2 were measured using procedures substantially similar to those described in Section 5.5 above.

Row | IC50 (TNFα) | EC50 (IL-2) | EC50 (IL-2; Homo sapiens, T-cell) | SMILES
1 | 93.3 nM | 57.2 nM | – | Nc1cccc2c1C(=O)N([C@@H]1CCC(=O)NC1=O)C2=O [(R)-pomalidomide]
2 | 3.9 nM | 12.4 nM | – | Nc1cccc2c1C(=O)N([C@H]1CCC(=O)NC1=O)C2=O [(S)-pomalidomide]
3 | 13 nM | – | 10.3 nM | Nc1cccc2c1C(=O)N(C1CCC(=O)NC1=O)C2=O (racemic) [racemic pomalidomide, 4-amino-2-(2,6-dixopiperidin-3-yl)isoindoline-1,3-dione]
